Measurements from PMC11915803, “Class B scavenger receptor resists WSSV replication by recognizing the viral lipid molecule and promoting phagocytosis” (Journal of Virology, 2025).

Target: T1, PcSRB (rPcSRB)
T1 construct: recombinant, pET-32a(+) BamHI/XhoI, His-tagged, tag kept
Assay: microscale thermophoresis, RED-tris-NTA labelled protein
Format: binding, Procambarus clarkii
Settings: PBS-T; His-tagged protein labelled, ligand unlabelled

Kd: 4.5 µM
SMILES: CC(C)CCC[C@@H](C)[C@H]1CC[C@H]2[C@@H]3CC=C4C=CCC[C@]4(C)[C@H]3CC[C@]12C [CD3,5, cholesta-3,5-diene]
